Test results: patent US12491252B2, “Substituted 3-amino-5-phenylbenzamide compounds as covalent inhibitors of enhancer zeste homolog 2 (EZH2) and proteolysis-targeting chimeric derivatives thereof (PROTACs) that induce degradation of EZH2” (Northwestern University, priority 2021, dated 2025)
Where two headings read alike, the source gives them in different places.

What was measured:
SUZ12 [1] = test: Western blot of SUZ12 in C4-2B cells; type: cell-based; settings: FIG. 14, 10 μM for 6 days
H3K27me3 = test: Western blot of H3K27me3 levels in C4-2B cells; type: cell-based; settings: FIG. 14, 10 μM for 6 days
EZH2 [2] = biological target: T1, EZH2 (Homo sapiens, UniProt Q15910); test: Ubiquitination of EZH2 in C4-2B cells with MG132; type: cell-based; settings: FIG. 15B, plus proteasome inhibitor MG132
T1 sequence (Q15910 whole entry): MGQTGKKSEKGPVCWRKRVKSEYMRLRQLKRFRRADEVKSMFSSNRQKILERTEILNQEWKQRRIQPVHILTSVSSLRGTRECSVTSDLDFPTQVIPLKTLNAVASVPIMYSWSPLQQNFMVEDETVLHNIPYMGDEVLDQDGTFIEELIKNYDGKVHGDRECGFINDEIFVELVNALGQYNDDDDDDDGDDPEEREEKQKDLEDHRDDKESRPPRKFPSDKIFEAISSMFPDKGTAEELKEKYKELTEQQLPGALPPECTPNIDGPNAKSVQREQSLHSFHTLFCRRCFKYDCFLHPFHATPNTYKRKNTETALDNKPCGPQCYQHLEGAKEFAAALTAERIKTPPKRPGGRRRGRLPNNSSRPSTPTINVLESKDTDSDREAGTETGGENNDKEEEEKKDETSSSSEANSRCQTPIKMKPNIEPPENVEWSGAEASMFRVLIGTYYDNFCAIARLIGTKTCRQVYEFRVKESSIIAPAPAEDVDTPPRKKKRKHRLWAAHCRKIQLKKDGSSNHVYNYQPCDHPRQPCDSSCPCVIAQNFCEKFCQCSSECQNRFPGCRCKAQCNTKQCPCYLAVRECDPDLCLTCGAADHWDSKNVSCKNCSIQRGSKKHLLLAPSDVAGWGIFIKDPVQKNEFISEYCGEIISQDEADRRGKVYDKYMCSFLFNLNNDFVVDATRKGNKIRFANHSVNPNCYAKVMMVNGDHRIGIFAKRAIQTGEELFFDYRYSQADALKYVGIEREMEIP
T1 sequence (Q15022 whole entry partner): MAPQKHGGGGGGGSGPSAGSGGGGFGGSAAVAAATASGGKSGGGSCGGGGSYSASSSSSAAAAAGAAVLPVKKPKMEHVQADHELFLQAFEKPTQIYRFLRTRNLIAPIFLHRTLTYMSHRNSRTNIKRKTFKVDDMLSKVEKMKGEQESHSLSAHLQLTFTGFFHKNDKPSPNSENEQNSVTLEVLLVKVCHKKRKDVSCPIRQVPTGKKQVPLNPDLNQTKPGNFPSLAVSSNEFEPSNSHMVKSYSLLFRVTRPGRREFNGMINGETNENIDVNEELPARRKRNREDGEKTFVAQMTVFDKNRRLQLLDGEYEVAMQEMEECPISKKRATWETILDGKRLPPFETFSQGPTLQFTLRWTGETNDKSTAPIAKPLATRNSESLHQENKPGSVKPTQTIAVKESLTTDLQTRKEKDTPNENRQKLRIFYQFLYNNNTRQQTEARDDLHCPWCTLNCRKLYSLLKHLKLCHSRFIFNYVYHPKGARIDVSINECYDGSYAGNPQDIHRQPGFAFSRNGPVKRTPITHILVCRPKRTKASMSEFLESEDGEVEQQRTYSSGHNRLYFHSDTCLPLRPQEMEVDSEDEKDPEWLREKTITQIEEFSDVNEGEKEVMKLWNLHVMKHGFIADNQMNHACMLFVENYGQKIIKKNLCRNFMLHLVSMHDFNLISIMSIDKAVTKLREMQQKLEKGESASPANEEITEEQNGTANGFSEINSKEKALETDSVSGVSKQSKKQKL
T1 sequence (O75530 whole entry partner): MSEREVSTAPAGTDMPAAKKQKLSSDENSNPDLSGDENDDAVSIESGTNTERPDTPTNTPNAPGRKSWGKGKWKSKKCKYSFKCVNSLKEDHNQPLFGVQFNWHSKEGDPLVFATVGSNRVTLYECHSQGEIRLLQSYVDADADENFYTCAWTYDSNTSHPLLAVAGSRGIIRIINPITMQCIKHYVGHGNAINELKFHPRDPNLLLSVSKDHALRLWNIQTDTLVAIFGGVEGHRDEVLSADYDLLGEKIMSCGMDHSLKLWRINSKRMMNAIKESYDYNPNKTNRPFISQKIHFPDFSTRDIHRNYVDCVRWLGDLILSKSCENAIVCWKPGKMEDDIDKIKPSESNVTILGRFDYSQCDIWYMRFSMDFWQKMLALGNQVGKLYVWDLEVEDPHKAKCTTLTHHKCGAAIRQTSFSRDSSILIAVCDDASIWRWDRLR

EZH2 [3] = biological target: T1, EZH2; test: Western blot of EZH2 with esiRNA knockdown of VHL or siRNA control; type: cell-based; settings: FIG. 16, duplicate
Protocol: FIG. 16. Cells were treated with indicated compounds with either esiRNA knockdown of VHL or siRNA control (no EZH2 knockdown) and blotted for EZH2 and VHL. […] Experiment was run in duplicate with both replicates shown on the left and right sides.

LNCaP cells [4] = test: Live imaging cell proliferation of LNCaP cells; type: cell-based; settings: FIG. 17A, monitored over 168 hours
From the text: FIG. 17A-17B. (FIG. 17A) Live imaging cell proliferation of LNCaP cells. […] DMSO is set as the negative control. […] (FIG. 17B) Colony assays using LnCaP cells after treatment with the indicated compounds for 7 days.

LNCaP cells [5] = test: Colony assay using LnCaP cells; type: cell-based; settings: FIG. 17B, treatment for 7 days
Protocol: (§1) FIG. 17A-17B. (FIG. 17A) Live imaging cell proliferation of LNCaP cells. Cells were treated with indicated compounds and monitored over 168 hours for proliferation by phase object confluence. DMSO is set as the negative control. […] (FIG. 17B) Colony assays using LnCaP cells after treatment with the indicated compounds for 7 days.

LNCaP cells [6] = test: Imaging of LnCaP cells (cell density); type: cell-based; settings: FIG. 18, 12 days' treatment
From the text: FIG. 18. Imaging of LnCaP cells after 12 days' treatment with the indicated compounds.

LNCaP cells [7] = test: WST cell proliferation/viability assay in LNCaP cells; type: cell-based; settings: for Inhibition of proliferation (WST): FIG. 19A, 6 days
Protocol: FIG. 19A-19B. (FIG. 19A) WST cell proliferation assay of indicated compounds in LNCaP cells. […] (FIG. 19B) Effects of indicated compounds on EZH2, AR, and FOXA1 by western blot at 1 μM in LNCaP cells.
(§2) Cell proliferation was measured using WST-1 Kit (Clontech) according to manufacturer's protocol.

C4-2B cells [8] = test: Live imaging cell proliferation of C4-2B cells; type: cell-based; settings: FIG. 20A, monitored over 168 hours
From the text: FIG. 20A-20B. (FIG. 20A) Live imaging cell proliferation of C4-2B cells. […] DMSO is set as the negative control. […] (FIG. 20B) Colony assays using C4-2B cells after treatment with the indicated compounds for 7 days.

C4-2B cells [9] = test: Colony assay using C4-2B cells; type: cell-based; settings: FIG. 20B, treatment for 7 days
Protocol: as §1, with “20A-20B.” for “17A-17B.”, “20A)” for “17A)”, “C4-2B” for “LNCaP”, “20B)” for “17B)”, “C4-2B” for “LnCaP”

C4-2B cells [10] = test: Imaging of C4-2B cells (cell density); type: cell-based; settings: FIG. 21, 12 days' treatment
From the text: FIG. 21. Imaging of C4-2B cells after 12 days' treatment with the indicated compounds.

C4-2B cells [11] = test: WST cell proliferation assay in C4-2B cells; type: cell-based; settings: FIG. 22, 6 days
Protocol: FIG. 22A-22B. WST cell proliferation assay of indicated compounds in C4-2B cells. Cells were treated for 6 days. […] (FIG. 19B) Effects of indicated compounds on EZH2, AR, and FOXA1 by western blot at 1 μM in C4-2B cells.
as §2

22Rv1 cells [12] = test: WST cell viability assay in 22Rv1 cells; type: cell-based
Protocol: as §2

22Rv1 cells [13] = test: Cell titer glo cell viability assay in 22Rv1 cells; type: cell-based
SU-DHL4 cells = test: WST cell viability assay in SU-DHL4 cells; type: cell-based; settings: for IC50: Homo sapiens, variable slope, read-out: IC50 (best-fit value)
Protocol: as §2

SU-DHL6 cells = test: WST cell viability assay in SU-DHL6 cells; type: cell-based
Protocol: as §2

EZH2 [14] = test: Western blot of EZH2 in SU-DHL4 cells; type: cell-based; settings: FIG. 33, 48 hours
SUZ12 [15] = test: Western blot of SUZ12 in SU-DHL4 cells; type: cell-based; settings: FIG. 33, 48 hours
Protocol: (§3) FIG. 33. […] Cell were treated for 48 hours with the indicated concentrations of compounds.

EED [16] = test: Western blot of EED in SU-DHL4 cells; type: cell-based; settings: FIG. 33, 48 hours
Protocol: as §3

EZH2 [17] = test: Western blot of EZH2 in SU-DHL6 cells; type: cell-based; settings: FIG. 33, 48 hours
SUZ12 [18] = test: Western blot of SUZ12 in SU-DHL6 cells; type: cell-based; settings: FIG. 33, 48 hours
Protocol: as §3

EED [19] = test: Western blot of EED in SU-DHL6 cells; type: cell-based; settings: FIG. 33, 48 hours
Protocol: as §3

[20] = Pharmacokinetics in mice, IP cassette dosing, plasma LC/MS/MS; type: in vivo, C57Bl/6 mouse; settings: mouse, C57Bl/6 mice, 4 mg/kg IP, cassette format
Protocol: FIG. 35. Pharmacokinetics of indicated compounds. Compounds were administered to C57Bl/6 mouse mice at 4 mg/kg using intraperitoneal (IP) injection in cassette format. Plasma was collected at the indicated time points and analyzed by LC/MS/MS using standard methods.
For assessing pharmacokinetics, compounds were administered to C57Bl/6 mouse mice at 4 mg/kg using intraperitoneal (IP) injection in cassette format. Plasma was collected at the indicated time points and analyzed by LC/MS/MS using standard methods.

[21] = tested on: prostate cancer cell lines; test: WST-1 cell proliferation in multiple prostate cancer cell lines; type: cell-based; settings: WST-1 Kit
Protocol: as §2

lymphoma cell lines = test: WST-1 cell proliferation in multiple lymphoma cell lines; type: cell-based; settings: WST-1 Kit
Protocol: as §2

EZH2 [22] = biological target: T1, EZH2; test: Western blot of EZH2 protein in PC3 cells; settings: FIG. 26, 6 days treatment
From the text: (Upper right western blot) Western blot analysis of EZH2 protein in PC3 cells after 6 days treatment.

EZH2 [23] = biological target: T1, EZH2; test: Western blot of EZH2 protein in C4-2B cells; settings: for Degradation of EZH2: FIG. 14, 10 μM for 6 days
EZH2 [24] = biological target: T1, EZH2; test: Western blot of EZH2 protein in DU-145 cells; settings: FIG. 27, 6 days treatment
From the text: (Upper right western blot) Western blot analysis of EZH2 protein in DU-145 cells after 6 days treatment.

[25] = Table 6, WST1 with higher dose on SU-DHL4
[26] = Table 8, WST1 within 1 μM on SU-DHL4
[27] = Table 9, WST1 within 1 μM on SU-DHL4 (as titled)
[28] = Table 7, WST1 with higher dose on SU-DHL6

Compound: CCN(c1cc(-c2ccc(CN3CCN(C(=O)CCCCCCCCCC(=O)N[C@H](C(=O)N4C[C@H](O)C[C@H]4C(=O)NCc4ccc(-c5scnc5C)cc4)C(C)(C)C)CC3)cc2)cc(C(=O)NCc2c(C)cc(C)[nH]c2=O)c1C)C1CCOCC1 [Compound 6272]
- Reduction of PRC2 component SUZ12 (SUZ12 [1]): reduction of PRC2 component SUZ12
- H3K27me3 levels (H3K27me3): reduced H3K27me3 levels
- Degree of ubiquitination of EZH2 (EZH2 [2]): much greater degree of ubiquitination of EZH2 than the inactive compound 6286
- Ability to degrade EZH2 with esiRNA knockdown of VHL (EZH2 [3]; VHL knockdown): inhibition of the ability of active compounds 6272 to degrade EZH2
- Ability to degrade EZH2 with siRNA control (VHL present) (EZH2 [3]; siRNA control lane): able to strongly degrade EZH2
- Cell proliferation by phase object confluence (LNCaP cells [4]): greatest ability to decrease LnCaP proliferation
- Colonies (LNCaP cells [5]): significant reduction in the colonies
- Cell density by imaging (LNCaP cells [6]): significant reduction in the cell density
- Inhibition of proliferation (WST) (LNCaP cells [7]; LNCaP): similarly potent effects on inhibiting the proliferation
- Anti-proliferative effect (WST cell viability) (LNCaP cells [7]; FIG. 23, LNCaP, 5 days' treatment, concentration range): greater anti-proliferative effect than EPZ-6438
- IC50 (LNCaP cells [7]; Homo sapiens, Table 3, WST1 test cell viability on LNCaP, [Inhibitor] vs. normalized response, read-out: IC50 (best-fit value)): 0.759 µM
- Cell proliferation by phase object confluence (C4-2B cells [8]): decrease C4-2B proliferation
- Colonies (C4-2B cells [9]): significant reduction in the colonies
- Cell density by imaging (C4-2B cells [10]): significant reduction in the cell density
- Inhibition of proliferation (WST) (C4-2B cells [11]): similarly potent effects on inhibiting the proliferation
- Anti-proliferative effect (WST cell viability) (22Rv1 cells [12]; FIG. 24, 22Rv1, 5 days' treatment, concentration range): greater anti-proliferative effect than EPZ-6438
- IC50 (22Rv1 cells [12]; Homo sapiens, Table 4, WST1 cell viability with different doses on 22Rv1, read-out: IC50 (best-fit value)): 1.33 µM
- Anti-proliferative effect (Cell titer glo cell viability) (22Rv1 cells [13]; FIG. 25, 22Rv1, 5 days' treatment, concentration range): greater anti-proliferative effect than EPZ-6438
- IC50 (22Rv1 cells [13]; Homo sapiens, Table 5, Cell titer glo test cell viability with different doses on 22Rv1, read-out: IC50 (best-fit value)): 0.692 µM
- Anti-proliferative effect (WST cell viability) (SU-DHL4 cells; FIG. 29, SU-DHL4, 4 days' treatment): greater anti-proliferative effect than EPZ-6438
- IC50 (SU-DHL4 cells; SU-DHL-4, Table 8, WST1 test cell viability within 1 μM on SU-DHL4): 2.5 µM
- IC50 (SU-DHL4 cells; SU-DHL-4, Table 9, WST1 test cell viability within 1 μM on SU-DHL4 (as titled)): 0.337 µM
- HillSlope (best-fit value) (SU-DHL4 cells; [25]): −0.093
- HillSlope (best-fit value) (SU-DHL4 cells; [26]): −0.2858
- HillSlope (best-fit value) (SU-DHL4 cells; [27]): −1.235
- logIC50 (best-fit value) (SU-DHL4 cells; [27]): −0.4722
- Anti-proliferative effect (WST cell viability) (SU-DHL6 cells; FIG. 30, SU-DHL6, 4 days' treatment): greater anti-proliferative effect than EPZ-6438
- Anti-proliferative effect (WST cell viability) at 1 μM (SU-DHL6 cells; FIG. 32, SU-DHL6, 4 days' treatment, 1 μM): greater anti-proliferative effect than EPZ-6438
- IC50 (SU-DHL6 cells; Homo sapiens, SU-DHL-6, Table 7, WST1 test cell viability with higher dose on SU-DHL6, variable slope, read-out: IC50 (best-fit value)): 0.892 µM
- Degradation of EZH2 (EZH2 [14]): significant degradation
- Degradation of SUZ12 (SUZ12 [15]): significant degradation
- Degradation of EED (EED [16]): significant degradation
- Degradation of EZH2 (EZH2 [17]): significant degradation
- Degradation of SUZ12 (SUZ12 [18]): significant degradation
- Degradation of EED (EED [19]): significant degradation
- half-life [20]: 3.5 to 6 h
- Inhibition of cell proliferation versus EPZ-6438 [21]: more potent and effective at inhibiting cell proliferation than the catalytic EZH2 inhibitor EPZ-6438
- Inhibition of cell proliferation versus EPZ-6438 (lymphoma cell lines): more potent and effective at inhibiting cell proliferation than the catalytic EZH2 inhibitor EPZ-6438
- EZH2 protein (western blot) (EZH2 [22]): significant reduction in EZH2
- Degrading EZH2 protein at nM doses, versus 2304 (EZH2 [23]; FIG. 10, 24 hours): more effective than 2304
- Degradation of EZH2 (EZH2 [23]): strong degradation of EZH2
- EZH2 protein (western blot) (EZH2 [24]): significant reduction in EZH2

Compound: CCN(c1cc(-c2ccc(CN3CCN(CCCCCCCCCCCC(=O)N[C@H](C(=O)N4C[C@H](O)C[C@H]4C(=O)NCc4ccc(-c5scnc5C)cc4)C(C)(C)C)CC3)cc2)cc(C(=O)NCc2c(C)cc(C)[nH]c2=O)c1C)C1CCOCC1 [Compound 6287]
- Reduction of PRC2 component SUZ12 (SUZ12 [1]): reduction of PRC2 component SUZ12
- H3K27me3 levels (H3K27me3): reduced H3K27me3 levels
- Cell proliferation by phase object confluence (LNCaP cells [4]): greatest ability to decrease LnCaP proliferation
- Colonies (LNCaP cells [5]): significant reduction in the colonies
- Cell density by imaging (LNCaP cells [6]): significant reduction in the cell density
- Inhibition of proliferation (WST) (LNCaP cells [7]; LNCaP): similarly potent effects on inhibiting the proliferation
- Cell proliferation by phase object confluence (C4-2B cells [8]): decrease C4-2B proliferation
- Colonies (C4-2B cells [9]): significant reduction in the colonies
- Cell density by imaging (C4-2B cells [10]): significant reduction in the cell density
- Inhibition of proliferation (WST) (C4-2B cells [11]): similarly potent effects on inhibiting the proliferation
- Cmax [20]: 487 nM
- half-life [20]: 6.5 h
- EZH2 protein (western blot) (EZH2 [22]): significant reduction in EZH2
- Degradation of EZH2 (EZH2 [23]): strong degradation of EZH2
- EZH2 protein (western blot) (EZH2 [24]): significant reduction in EZH2

Compound: CCN(c1cc(-c2ccc(CN3CCOCC3)cc2)cc(C(=O)NCc2c(C)cc(C)[nH]c2=O)c1C)C1CCOCC1 [EPZ-6438, reference compound]
- Colonies (LNCaP cells [5]): reduction in colonies versus DMSO negative control
- Colonies (C4-2B cells [9]): reduction in colonies versus DMSO negative control
- HillSlope (best-fit value) (SU-DHL4 cells; [25]): 0.005835
- HillSlope (best-fit value) (SU-DHL4 cells; [26]): −0.1692
- HillSlope (best-fit value) (SU-DHL4 cells; [27]): −0.4432
- HillSlope (best-fit value) (SU-DHL6 cells; [28]): −0.03015
- logIC50 (best-fit value) (SU-DHL6 cells; [28]): Unstable
- Degradation of SUZ12 (SUZ12 [15]): little or no effect
- Degradation of EED (EED [16]): little or no effect
- Degradation of SUZ12 (SUZ12 [18]): little or no effect
- Degradation of EED (EED [19]): little or no effect
